Experimental data from ChEMBL document CHEMBL3045095, “Synthesis and biological evaluation of some Schiff bases of 4-amino-5-(4-methylsulfonyl)benzyl-2,4-dihydro-3H-[1,2,4]-triazole-3-thione” (Med Chem Res, 2013).
pEC50: −log10 of the molar value. Values after ≈ are worked out from the molar mass of the structure shown. Active and inactive are the calls of the source. The rule behind the calls is not given here.

How the values were obtained:
HeLa [1] = assay: Cytotoxicity against Homo sapiens (human) HeLa cells after 48 hr by MTT assay; assay type: functional, cell-based
Pseudomonas aeruginosa = assay: Antibacterial activity against Pseudomonas aeruginosa after 16 to 18 hr by serial dilution method; assay type: functional
HeLa [2] = assay: Cytotoxicity against Homo sapiens (human) HeLa cells assessed as cell death at 50 uM after 48 hr by MTT assay; assay type: functional
Staphylococcus aureus = assay: Antibacterial activity against Staphylococcus aureus after 16 to 18 hr by serial dilution method; assay type: functional
Bacillus cereus = assay: Antibacterial activity against Bacillus cereus after 16 to 18 hr by serial dilution method; assay type: functional
Escherichia coli = assay: Antibacterial activity against Escherichia coli after 16 to 18 hr by serial dilution method; assay type: functional
Candida albicans = assay: Antifungal activity against Candida albicans after 16 to 18 hr by serial dilution method; assay type: functional
HeLa [3] = assay: Cytotoxicity against Homo sapiens (human) HeLa cells assessed as cell death at 25 uM after 48 hr by MTT assay; assay type: functional
HeLa [4] = assay: Cytotoxicity against Homo sapiens (human) HeLa cells assessed as cell death at 12.5 uM after 48 hr by MTT assay; assay type: functional
HeLa [5] = assay: Cytotoxicity against Homo sapiens (human) HeLa cells assessed as cell death at 100 uM after 48 hr by MTT assay; assay type: functional
HeLa [6] = assay: Cytotoxicity against Homo sapiens (human) HeLa cells assessed as cell death at 2.5 uM after 48 hr by MTT assay; assay type: functional

For `CS(=O)(=O)c1ccc(Cc2n[nH]c(=S)n2/N=C/c2ccc(Cl)cc2)cc1`, the pEC50 (HeLa [1]) was 4.30, the MIC (Pseudomonas aeruginosa) was 6.25 µg/mL (≈ 15.4 µM) and the Activity (HeLa [2]) was 53.99%. It also gave an MIC (Staphylococcus aureus) of 6.25 µg/mL (≈ 15.4 µM), an MIC (Bacillus cereus) of 6.25 µg/mL (≈ 15.4 µM) and an MIC (Escherichia coli) of 12.5 µg/mL (≈ 30.7 µM). The MIC (Candida albicans) was 1.56 µg/mL (≈ 3.84 µM), the Activity (HeLa [3]) was 47.51% and the Activity (HeLa [4]) was 44.73%. The Activity (HeLa [5]) was 57.04%.
Work on `OC(Cn1cncn1)(Cn1cncn1)c1ccc(F)cc1F` [FLUCONAZOLE] yielded an MIC (Candida albicans) of 0.78 µg/mL (≈ 2.55 µM).
For `CSc1ccc(/C=N/n2c(Cc3ccc(S(C)(=O)=O)cc3)n[nH]c2=S)cc1`, the pEC50 (HeLa [1]) was 4.30, the MIC (Pseudomonas aeruginosa) was 3.12 µg/mL (≈ 7.47 µM) and the Activity (HeLa [2]) was 57.5%. The MIC (Staphylococcus aureus) was 3.12 µg/mL (≈ 7.47 µM), the MIC (Bacillus cereus) was 3.12 µg/mL (≈ 7.47 µM) and the MIC (Escherichia coli) was 3.12 µg/mL (≈ 7.47 µM). For the same compound, the MIC (Candida albicans) was 3.12 µg/mL (≈ 7.47 µM), the Activity (HeLa [3]) was 32.66% and the Activity (HeLa [4]) was 27.94%. It also gave an Activity (HeLa [5]) of 71.86%.
Compound `COc1cccc2c1C(=O)c1c(O)c3c(c(O)c1C2=O)C[C@@](O)(C(=O)CO)C[C@@H]3O[C@H]1C[C@H](N)[C@H](O)[C@H](C)O1` [DOXORUBICIN] has a pEC50 (HeLa [1]) of 5.60 and an Activity (HeLa [6]) of 78.2%.
With `CS(=O)(=O)c1ccc(Cc2n[nH]c(=S)n2/N=C/c2ccc(F)cc2)cc1` the pEC50 (HeLa [1]) was 4.00, the MIC (Pseudomonas aeruginosa) was 6.25 µg/mL (≈ 16 µM) and the Activity (HeLa [2]) was 26.25%. The MIC (Staphylococcus aureus) was 12.5 µg/mL (≈ 32 µM), the MIC (Bacillus cereus) was 6.25 µg/mL (≈ 16 µM) and the MIC (Escherichia coli) was 6.25 µg/mL (≈ 16 µM). For the same compound, the MIC (Candida albicans) was 3.12 µg/mL (≈ 8 µM), the Activity (HeLa [3]) was “inactive” and the Activity (HeLa [4]) was 2.8%. The Activity (HeLa [5]) was 57.79%.
`CC1(C)S[C@@H]2[C@H](NC(=O)Cc3ccccc3)C(=O)N2[C@H]1C(=O)O` [PENICILLIN G] gave an MIC (Pseudomonas aeruginosa) of 0.097 µg/mL (≈ 0.29 µM), an MIC (Staphylococcus aureus) of 0.097 µg/mL (≈ 0.29 µM) and an MIC (Bacillus cereus) of 0.097 µg/mL (≈ 0.29 µM). For the same compound, the MIC (Escherichia coli) was 0.097 µg/mL (≈ 0.29 µM).
`COc1ccc2cc(/C=N/n3c(Cc4ccc(S(C)(=O)=O)cc4)n[nH]c3=S)ccc2c1` showed a pEC50 (HeLa [1]) of 4.30, an MIC (Pseudomonas aeruginosa) of 6.25 µg/mL (≈ 13.8 µM) and an Activity (HeLa [2]) of 54.13%. The MIC (Staphylococcus aureus) was 6.25 µg/mL (≈ 13.8 µM), the MIC (Bacillus cereus) was 6.25 µg/mL (≈ 13.8 µM) and the MIC (Escherichia coli) was 6.25 µg/mL (≈ 13.8 µM). It also gave an MIC (Candida albicans) of 6.25 µg/mL (≈ 13.8 µM), an Activity (HeLa [3]) of 42.01% and an Activity (HeLa [4]) of 43.71%. It also gave an Activity (HeLa [5]) of 64.6%.
`CS(=O)(=O)c1ccc(Cc2n[nH]c(=S)n2/N=C/c2cccnc2)cc1` gave a pEC50 (HeLa [1]) of under 4.00, an MIC (Pseudomonas aeruginosa) of 6.25 µg/mL (≈ 16.7 µM) and an Activity (HeLa [2]) of 14%. The MIC (Staphylococcus aureus) was 6.25 µg/mL (≈ 16.7 µM), the MIC (Bacillus cereus) was 12.5 µg/mL (≈ 33.5 µM) and the MIC (Escherichia coli) was 6.25 µg/mL (≈ 16.7 µM). For the same compound, the MIC (Candida albicans) was 6.25 µg/mL (≈ 16.7 µM), the Activity (HeLa [3]) was 19.36% and the Activity (HeLa [4]) was 16.89%. The Activity (HeLa [5]) was 45.1%.
Compound `CS(=O)(=O)c1ccc(Cc2n[nH]c(=S)n2/N=C/c2c(F)cccc2Cl)cc1` has a pEC50 (HeLa [1]) of 4.60, an MIC (Pseudomonas aeruginosa) of 3.12 µg/mL (≈ 7.35 µM) and an Activity (HeLa [2]) of 70.55%. It also gave an MIC (Staphylococcus aureus) of 6.25 µg/mL (≈ 14.7 µM), an MIC (Bacillus cereus) of 3.12 µg/mL (≈ 7.35 µM) and an MIC (Escherichia coli) of 6.25 µg/mL (≈ 14.7 µM). It also gave an MIC (Candida albicans) of 3.12 µg/mL (≈ 7.35 µM), an Activity (HeLa [3]) of 55.32% and an Activity (HeLa [4]) of 49.84%. The Activity (HeLa [5]) was 77.28%.
`CS(=O)(=O)c1ccc(Cc2n[nH]c(=S)n2/N=C/c2ccc(-c3ccccc3)cc2)cc1` showed a pEC50 (HeLa [1]) of 4.30, an MIC (Pseudomonas aeruginosa) of 6.25 µg/mL (≈ 13.9 µM) and an Activity (HeLa [2]) of 61.56%. The MIC (Staphylococcus aureus) was 6.25 µg/mL (≈ 13.9 µM), the MIC (Bacillus cereus) was 6.25 µg/mL (≈ 13.9 µM) and the MIC (Escherichia coli) was 3.12 µg/mL (≈ 6.97 µM). For the same compound, the MIC (Candida albicans) was 6.25 µg/mL (≈ 13.9 µM), the Activity (HeLa [3]) was 37.32% and the Activity (HeLa [4]) was 30.44%. It also gave an Activity (HeLa [5]) of 69.54%.
Work on `CS(=O)(=O)c1ccc(Cc2n[nH]c(=S)n2/N=C/c2cccs2)cc1` yielded a pEC50 (HeLa [1]) of 4.00, an MIC (Pseudomonas aeruginosa) of 6.25 µg/mL (≈ 16.5 µM) and an Activity (HeLa [2]) of 48.59%. For the same compound, the MIC (Staphylococcus aureus) was 12.5 µg/mL (≈ 33 µM), the MIC (Bacillus cereus) was 12.5 µg/mL (≈ 33 µM) and the MIC (Escherichia coli) was 3.12 µg/mL (≈ 8.26 µM). It also gave an MIC (Candida albicans) of 3.12 µg/mL (≈ 8.26 µM), an Activity (HeLa [3]) of 33.33% and an Activity (HeLa [4]) of 28.69%. It also gave an Activity (HeLa [5]) of 61.09%.
`CS(=O)(=O)c1ccc(Cc2n[nH]c(=S)n2/N=C/c2ccccc2Cl)cc1` was tested, and the MIC (Pseudomonas aeruginosa) was 3.12 µg/mL (≈ 7.68 µM), the Activity (HeLa [2]) was 42.65% and the MIC (Staphylococcus aureus) was 12.5 µg/mL (≈ 30.7 µM). It also gave an MIC (Bacillus cereus) of 6.25 µg/mL (≈ 15.4 µM), an MIC (Escherichia coli) of 6.25 µg/mL (≈ 15.4 µM) and an MIC (Candida albicans) of 3.12 µg/mL (≈ 7.68 µM). The Activity (HeLa [3]) was 36.26%, the Activity (HeLa [4]) was 34.65% and the Activity (HeLa [5]) was 76.53%.
With `CS(=O)(=O)c1ccc(Cc2n[nH]c(=S)n2/N=C/c2ccccc2F)cc1` the pEC50 (HeLa [1]) was under 4.00, the MIC (Pseudomonas aeruginosa) was 6.25 µg/mL (≈ 16 µM) and the Activity (HeLa [2]) was 21.9%. The MIC (Staphylococcus aureus) was 6.25 µg/mL (≈ 16 µM), the MIC (Bacillus cereus) was 3.12 µg/mL (≈ 8 µM) and the MIC (Escherichia coli) was 3.12 µg/mL (≈ 8 µM). The MIC (Candida albicans) was 3.12 µg/mL (≈ 8 µM), the Activity (HeLa [3]) was 14.03% and the Activity (HeLa [4]) was 16.48%. The Activity (HeLa [5]) was 28.08%.
